From patent publication US8299048B2, “Hexahydrocyclopentyl[f]indazole sulfonamides and derivatives thereof as selective glucocorticoid receptor modulators” (Merck Sharp & Dohme Corp., priority 2008, dated 2012)

Molecular target: T1, human GR (Homo sapiens, UniProt P04150)
T1 sequence (P04150 1-777): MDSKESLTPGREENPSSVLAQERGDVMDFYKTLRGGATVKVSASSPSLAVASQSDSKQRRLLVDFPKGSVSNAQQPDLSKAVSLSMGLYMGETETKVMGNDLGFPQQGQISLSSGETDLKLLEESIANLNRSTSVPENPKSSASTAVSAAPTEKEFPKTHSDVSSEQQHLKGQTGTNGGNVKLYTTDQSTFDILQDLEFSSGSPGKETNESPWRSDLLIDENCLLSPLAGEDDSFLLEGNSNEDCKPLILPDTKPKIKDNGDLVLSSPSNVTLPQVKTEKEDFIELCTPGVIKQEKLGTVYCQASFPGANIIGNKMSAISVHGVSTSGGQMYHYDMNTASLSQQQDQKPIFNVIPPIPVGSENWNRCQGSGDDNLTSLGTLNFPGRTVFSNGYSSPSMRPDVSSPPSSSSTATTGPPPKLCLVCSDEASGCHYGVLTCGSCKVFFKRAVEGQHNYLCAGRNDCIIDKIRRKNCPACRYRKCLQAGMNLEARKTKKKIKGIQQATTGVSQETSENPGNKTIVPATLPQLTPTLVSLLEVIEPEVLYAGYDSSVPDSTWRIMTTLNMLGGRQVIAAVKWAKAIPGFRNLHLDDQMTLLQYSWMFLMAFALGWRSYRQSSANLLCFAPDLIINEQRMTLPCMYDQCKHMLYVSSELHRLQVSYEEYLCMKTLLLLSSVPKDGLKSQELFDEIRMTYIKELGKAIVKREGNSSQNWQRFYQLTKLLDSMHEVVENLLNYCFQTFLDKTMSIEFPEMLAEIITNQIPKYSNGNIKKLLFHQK
Experiment: Trans-Activation Modulation of Glucocorticoid Receptor (GRAMMER), MMTV-LUC reporter, agonist mode
Format: cell-based
Set-up: endogenous in cells
Conditions: for Emax: A549, A549 cells, maximum activity, read-out: Transactivation A549 Cells GRAMMER Emax; for EC50: A549 cells, inflection point, read-out: Transactivation A549 Cells GRAMMER IP
Summary of the method: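 Readout is luciferase from a modified MMTV LTR promoter after 24 h compound exposure alongside 10 nM dexamethasone (100% activity reference), DMSO ≤1%.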

Structure (SMILES)	Emax	EC50
C[C@]12Cc3cnn(-c4ccc(F)cc4)c3C=C1CC[C@@H]2CN(CC1CC1)S(=O)(=O)/C=C/c1ccccc1 [Example 13, (E)-N-(cyclopropylmethyl)-N-{[(4αR,5S)-1-(4-fluorophenyl)-4α-methyl-1,4,4α,5,6,7-hexahydrocyclopenta[f]indazol-5-yl]methyl}-2-phenylethylenesulfonamide]	8.3%	82.9 nM
CNC(=O)Nc1ccc(S(=O)(=O)N(CC2CC2)C[C@H]2CCC3=Cc4c(cnn4-c4ccc(F)cc4)C[C@@]32C)c(Cl)c1 [Example 14, 2-chloro-N-(cyclopropylmethyl)-N-{[(4αR,5S)-1-(4-fluorophenyl)-4α-methyl-1,4,4α,5,6,7-hexahydrocyclopenta[f]indazol-5-yl]methyl}-4-{[(methylamino)carbonyl]amino}-benzenesulfonamide]	25.2%	344 nM
C[C@]12Cc3cnn(-c4ccc(F)cc4)c3C=C1CC[C@@H]2CN(CC1CC1)S(=O)(=O)c1ccc(F)c(Cl)c1 [Example 15, 3-chloro-N-(cyclopropylmethyl)-4-fluoro-N-{[(4αR,5S)-1-(4-fluorophenyl)-4α-methyl-1,4,4α,5,6,7-hexahydrocyclopenta[f]indazol-5-yl]methyl}benzenesulfonamide]	27.6%	292 nM
C[C@]12Cc3cnn(-c4ccc(F)cc4)c3C=C1CC[C@@H]2CN(CCC#N)S(=O)(=O)c1ccccc1F [Example 16, N-(2-cyanoethyl)-2-fluoro-N-{[(4αR,5S)-1-(4-fluorophenyl)-4α-methyl-1,4,4α,5,6,7-hexahydrocyclopenta[f]indazol-5-yl]methyl}benzenesulfonamide]	53%	254 nM
C[C@]12Cc3cnn(-c4ccc(F)cc4)c3C=C1CC[C@@H]2CN(CCO)S(=O)(=O)c1ccccc1F [Example 17, 2-fluoro-N-{[(4αR,5S)-1-(4-fluorophenyl)-4α-methyl-1,4,4α,5,6,7-hexahydrocyclopenta[f]indazol-5-yl]methyl}-N-(2-hydroxyethyl)benzenesulfonamide]	37.3%	220 nM
COC(=O)c1ccccc1S(=O)(=O)N(CC1CC1)C[C@H]1CCC2=Cc3c(cnn3-c3ccc(F)cc3)C[C@@]21C [Example 18, methyl 2-[((cyclopropylmethyl){[(4αR,5S)-1-(4-fluorophenyl)-4α-methyl-1,4,4α,5,6,7-hexahydrocyclopenta[f]indazol-5 yl]methyl}amino)sulfonyl]benzoate]	20%	394 nM
C[C@]12Cc3cnn(-c4ccc(F)cc4)c3C=C1CC[C@@H]2CN(CCO)S(=O)(=O)c1ccc(F)c(Cl)c1 [Example 19, 3-chloro-4-fluoro-N-{[(4αR,5S)-1-(4-fluorophenyl)-4α-methyl-1,4,4α,5,6,7-hexahydrocyclopenta[f]indazol-5-yl]methyl}-N-(2-hydroxyethyl)benzenesulfonamide]	20.6%	1190 nM
C[C@]12Cc3cnn(-c4ccc(F)cc4)c3C=C1CC[C@@H]2CN(CC#N)S(=O)(=O)c1ccc(F)c(Cl)c1 [Example 20, 3-chloro-N-(cyanomethyl)-4-fluoro-N-{[(4αR,5S)-1-(4-fluorophenyl)-4α-methyl-1,4,4α,5,6,7-hexahydrocyclopenta[f]indazol-5-yl]methyl}benzenesulfonamide]	68.1%	910 nM
C[C@]12Cc3cnn(-c4ccc(F)cc4)c3C=C1CC[C@@H]2CN(CC1CC1)S(=O)(=O)Cc1ccccc1 [Example 21, N-(cyclopropylmethyl)-N-{[(4αR,5S)-1-(4-fluorophenyl)-4α-methyl-1,4,4α,5,6,7-hexahydrocyclopenta[f]indazol-5-yl]methyl}-1-phenylmethanesulfonamide]	33.5%	519 nM
Cc1oncc1S(=O)(=O)N(CC#N)C[C@H]1CCC2=Cc3c(cnn3-c3ccc(F)cc3)C[C@@]21C [Example 23, N-(cyanomethyl)-N-{[(4αR,5S)-1-(4-fluorophenyl)-4α-methyl-1,4,4α,5,6,7-hexahydrocyclopenta[f]indazol-5-yl]methyl}-5-methylisoxazole-4-sulfonamide]	2.7%	8790 nM
C[C@]12Cc3cnn(-c4ccc(F)cc4)c3C=C1CC[C@@H]2CN(CC#N)S(=O)(=O)c1cc(Cl)c(Cl)s1 [Example 24, 4,5-dichloro-N-(cyanomethyl)-N-{[(4αR,5S)-1-(4-fluorophenyl)-4α-methyl-1,4,4α,5,6,7-hexahydrocyclopenta[f]indazol-5-yl]methyl}thiophene-2-sulfonamide]	10.5%	845 nM
C[C@]12Cc3cnn(-c4ccc(F)cc4)c3C=C1CC[C@@H]2CN(CC#N)S(=O)(=O)c1ccc(F)c(F)c1 [Example 25, N-(cyanomethyl)-3,4-difluoro-N-{[(4αR,5S)-1-(4-fluorophenyl)-4α-methyl-1,4,4α,5,6,7-hexahydrocyclopenta[f]indazol-5-yl]methyl}benzenesulfonamide]	76.4%	453 nM
C[C@]12Cc3cnn(-c4ccc(F)cc4)c3C=C1CC[C@@H]2CN(CC#N)S(=O)(=O)c1cccc(Cl)c1Cl [Example 26, 2,3-dichloro-N-(cyanomethyl)-N-{[(4αR,5S)-1-(4-fluorophenyl)-4α-methyl-1,4,4α,5,6,7-hexahydrocyclopenta[f]indazol-5-yl]methyl}benzenesulfonamide]	5.8%	939 nM
C[C@]12Cc3cnn(-c4ccc(F)cc4)c3C=C1CC[C@@H]2CN(CC#N)S(=O)(=O)c1ccc(Cl)c(C(F)(F)F)c1 [Example 27, 4-chloro-N-(cyanomethyl)-N-{[(4αR,5S)-1-(4-fluorophenyl)-4α-methyl-1,4,4α,5,6,7-hexahydrocyclopenta[f]indazol-5-yl]methyl}-3-(trifluoromethyl)benzenesulfonamide]	3%	994 nM
C[C@]12Cc3cnn(-c4ccc(F)cc4)c3C=C1CC[C@@H]2CN(CC#N)S(=O)(=O)c1ccc(C#N)cc1 [Example 28, 4-cyano-N-(cyanomethyl)-N-{[(4αR,5S)-1-(4-fluorophenyl)-4α-methyl-1,4,4α,5,6,7-hexahydrocyclopenta[f]indazol-5-yl]methyl}benzenesulfonamide]	44%	483 nM
Cc1cc(S(=O)(=O)N(CC#N)C[C@H]2CCC3=Cc4c(cnn4-c4ccc(F)cc4)C[C@@]32C)c(C)cc1Cl [Example 29, 4-chloro-N-(cyanomethyl)-N-{[(4αR,5S)-1-(4-fluorophenyl)-4α-methyl-1,4,4α,5,6,7-hexahydrocyclopenta[f]indazol-5-yl]methyl}-2,5-dimethylbenzenesulfonamide]	4.7%	1710 nM
C[C@]12Cc3cnn(-c4ccc(F)cc4)c3C=C1CC[C@@H]2CN(CC#N)S(=O)(=O)Cc1cccc(C(F)(F)F)c1 [Example 30, N-(cyanomethyl)-N-{[(4αR,5S)-1-(4-fluorophenyl}-4α-methyl-1,4,4α,5,6,7-hexahydrocyclopenta[f]indazol-5-yl]methyl}-1-[3-(trifluoromethyl)phenyl]methanesulfonamide]	3.5%	1640 nM
Cc1ccc(S(=O)(=O)N(CC#N)C[C@H]2CCC3=Cc4c(cnn4-c4ccc(F)cc4)C[C@@]32C)s1 [Example 31, N-(cyanomethyl)-N-{[(4αR,5S)-1-(4-fluorophenyl}-4α-methyl-1,4,4α,5,6,7-hexahydrocyclopenta[f]indazol-5-yl]methyl}-5-methylthiophene-2-sulfonamide]	20.7%	833 nM
Cn1cc(S(=O)(=O)N(CC#N)C[C@H]2CCC3=Cc4c(cnn4-c4ccc(F)cc4)C[C@@]32C)c(C(F)(F)F)n1 [Example 32, N-(cyanomethyl)-N-{[(4αR,5S)-1-(4-fluorophenyl}-4α-methyl-1,4,4α,5,6,7-hexahydrocyclopenta[f]indazol-5-yl]methyl}-1-methyl-3-(trifluoromethyl)-1H-pyrazole-4-sulfonamide]	29.4%	868 nM
Cc1cc(S(=O)(=O)N(CC#N)C[C@H]2CCC3=Cc4c(cnn4-c4ccc(F)cc4)C[C@@]32C)c(C)o1 [Example 33, (4αR,5S)-5-({(cyanomethyl)[(2,5-dimethyl-3-furyl)sulfonyl]amino}methyl)-1-(4-fluorophenyl)-4α-methyl-1,4,4α,5,6,7-hexahydrocyclopenta[f]indazol-2-ium]	15.2%	1050 nM
COC(=O)c1sccc1S(=O)(=O)N(CC#N)C[C@H]1CCC2=Cc3c(cnn3-c3ccc(F)cc3)C[C@@]21C [Example 34, methyl 3-[((cyanomethyl){[(4αR,5S)-1-(4-fluorophenyl)-4α-methyl-1,4,4α,5,6,7-hexahydrocyclopenta[f]indazol-5-yl]methyl}amino)sulfonyl]thiophene-2-carboxylate]	37%	748 nM
Cn1nc(C(F)(F)F)cc1-c1ccc(S(=O)(=O)N(CC#N)C[C@H]2CCC3=Cc4c(cnn4-c4ccc(F)cc4)C[C@@]32C)s1 [Example 35]	4.9%	443 nM
